Experimental data reported in patent publication US20100330126A1, “Attenuated malaria blood-stage vaccine” (priority 2009, published 2010).

Legend:
Type in all cases: biochemical
P. yoelii PNP = test: Phosphorylase activity assay, kinetic constants of recombinant PyPNP; settings: for Km / kcat: substrate of P. yoelii PNP, 50 mM KPO4, pH 7.4
Description: Expression, Purification, and Characterization of PyPNP. Recombinant PyPNP was expressed with a C-terminal 6×His tag and the c-myc epitope and purified from induced bacterial culture by nickel affinity chromatography under native conditions. Like PfPNP, recombinant PyPNP elutes from gel filtration chromatography as a single peak consisting of homohexameric protein (≈180 kDa; data not shown). On a denatured SDS-PAGE gel, the protein ran as a single band with a molecular mass of 29.94 kDa. […] The catalytic efficiencies (kcat/Km) of PyPNP for these substrates were very similar to those observed in PfPNP (Table 2).
Cloning and Expression of P. yoelii PNP. PyPNP was identified as a protein of 244 amino acids and 26.943 kDa by protein sequence homology to PfPNP (gene PY04622; PlasmoDB.org). The PyPNP open reading frame (ORF) sequence was amplified by PCR from genomic DNA of P. yoelii strain YM with primers PyPNP-F (5′-[…]-3′) (SEQ ID NO:8) and PyPNP-R (5′-[…]-3′) (SEQ ID NO:9). The 729 by PCR product was ligated into a pTrcHis2-TOPO vector (Invitrogen) and expressed in E. coli strain TOP 10. Recombinant PyPNP with a C-terminal 6×His tag and the c-myc epitope was induced with 1 mM IPTG at 37° C. for 10 h and purified by nickel chromatography. The purified PyPNP was >95% homogeneous based on denaturing polyacrylamide gel electrophoresis and staining with Coomassie blue. Protein concentration was measured by Bradford protein assay (Bio-Rad).
(§1) Enzymatic Assays and Determination of Kinetic Constants. All phosphorylase activity assays were performed with purified enzyme in 50 mM KPO4, pH 7.4 as described^1. Briefly, phosphorylysis of inosine, 2′-deoxyinosine, and 5′-methylthioinosine was measured in a coupled assay with 115 milliunits/ml xanthine oxidase to convert hypoxanthine into uric acid. Uric acid formation was followed by spectrophotometric measurement at 293 nm (E293=12.9 mM^−1 cm^−1). Phosphorylysis of guanosine to guanine was monitored by measuring the disappearance of guanosine at 258 nm (E258=5.2 mM^−1 cm^−1). Adenosine and 5′-methylthioadenosine phosphorylase activities were measured by following the disappearance of the substrate at 265 nm (E256=1.9 mM^−1 cm^−1). Uridine phosphorylase activity was measured by following the conversion of uridine to uracil at 272 nm (E260=2.9 mM^−1 cm^−1). The Michaelis constant Km was determined as the substrate concentration at ½ the maximum velocity. The kcat was determined for each substrate by fits of substrate saturation data to the Michaelis-Menten equation. Values for kcat assume one catalytic site per subunit and are expressed as moles of product per second per mole of subunit.

P. falciparum PNP = target: T1, P. falciparum PNP (Plasmodium falciparum, UniProt Q8I3X4); test: Phosphorylase activity assay, kinetic constants of PfPNP; settings: substrate of P. falciparum PNP
T1 sequence (Q8I3X4 1-245): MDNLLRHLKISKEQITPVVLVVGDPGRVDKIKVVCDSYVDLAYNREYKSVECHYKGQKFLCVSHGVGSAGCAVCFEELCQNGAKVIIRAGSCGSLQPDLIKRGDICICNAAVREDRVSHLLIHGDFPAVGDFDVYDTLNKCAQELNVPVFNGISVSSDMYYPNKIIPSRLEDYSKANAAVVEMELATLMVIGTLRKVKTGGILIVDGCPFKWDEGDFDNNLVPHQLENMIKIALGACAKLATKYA
Protocol: as §1

[1] = substrate: OC[C@H]1O[C@@H](n2cnc3c(O)ncnc32)[C@H](O)[C@@H]1O; test: as above; settings: other: substrate of P. falciparum PNP; pH 7.4
Protocol: as §1

[2] = substrate: OC[C@H]1O[C@@H](n2cnc3c(O)ncnc32)C[C@@H]1O; test: as above; settings: other: substrate of P. falciparum PNP; pH 7.4
Protocol: as §1

[3] = substrate: Nc1nc2c(ncn2[C@@H]2O[C@H](CO)[C@@H](O)[C@H]2O)c(=O)[nH]1; test: as above; settings: other: substrate of P. falciparum PNP; pH 7.4
Protocol: as §1

## OC[C@H]1O[C@@H](n2cnc3c(O)ncnc32)C[C@@H]1O [2′-deoxyinosine]
P. yoelii PNP
  Km: 79 ± 10 µM
  kcat: 1.2 ± 0.1 s⁻¹

## Nc1nc2c(ncn2[C@@H]2O[C@H](CO)[C@@H](O)[C@H]2O)c(=O)[nH]1 [Guanosine]
P. yoelii PNP
  Km: 8.9 ± 1.6 µM
  kcat: 3.8 ± 0.2 s⁻¹

## OC[C@H]1O[C@@H](n2cnc3c(O)ncnc32)[C@H](O)[C@@H]1O [Inosine]
P. yoelii PNP
  Km: 8.6 ± 1.5 µM
  kcat: 3.5 ± 0.1 s⁻¹

## CSc1ncnc2c1ncn2[C@@H]1O[C@H](CO)[C@@H](O)[C@H]1O [Methylthioinosine]
P. yoelii PNP
  Km: 5 ± 0.4 µM
  kcat: 3.4 ± 0.1 s⁻¹
P. falciparum PNP
  Km: 10.8 ± 0.9 µM
  kcat: 2.6 ± 0.8 s⁻¹

## O=c1ccn([C@@H]2O[C@H](CO)[C@@H](O)[C@H]2O)c(=O)[nH]1 [uridine]
P. yoelii PNP; data not shown
  PyPNP activity with substrate: no detectable activity

B1: P. falciparum PNP (Plasmodium falciparum 3D7) (protein)
chain: MDNLLRHLKISKEQITPVVLVVGDPGRVDKIKVVCDSYVDLAYNREYKSVECHYKGQKFLCVSHGVGSAGCAVCFEELCQNGAKVIIRAGSCGSLQPDLIKRGDICICNAAVREDRVSHLLIHGDFPAVGDFDVYDTLNKCAQELNVPVFNGISVSSDMYYPNKIIPSRLEDYSKANAAVVEMELATLMVIGTLRKVKTGGILIVDGCPFKWDEGDFDNNLVPHQLENMIKIALGACAKLATKYA
[1]
  Km: 4.7 ± 0.9 µM
  kcat: 1.1 ± 0.2 s⁻¹
  kcat/Km: 230000 M⁻¹ s⁻¹
[2]
  Km: 91 ± 35 µM
  kcat: 0.9 ± 0.3 s⁻¹
  kcat/Km: 9800 M⁻¹ s⁻¹
[3]
  Km: 9.4 ± 1.2 µM
  kcat: 2.6 ± 0.5 s⁻¹
  kcat/Km: 280000 M⁻¹ s⁻¹
